Here are results for seven compounds from patent publication US20100261710A1, “HDAC Inhibitors” (ARQULE, INC., priority 2007, published 2010).

One data set addresses T1, HDAC2 (Homo sapiens, UniProt Q92769).
T1 construct: purchased BioMol
Description: HDAC isoform assay, HDAC2. In kind it is biochemical. The conditions noted are these: substrate KI-177; read-out: HDAC2, IC50, ELISA (KI-177).

In data set [1] the test system is HDACs (nuclear HeLa extract). As to the kind of experiment: pan-HDAC fluorescent biochemical assay with nuclear HeLa extract. The conditions noted are these: HDAC peptide substrate, 60 min at 37° C. The procedure:
Substrate was synthesized in house. Stocks were prepared in DMSO (10 mM).
Compound working solution: Compounds dissolved in assay buffer at 4× Screening concentration. Activator solution: Trypsin (10 mg/mL) diluted 1:1600 in Assay Buffer containing 4 μM TSA.
Total reaction Volume: 40 μL
Reaction was allowed to run for 60 minutes at 37° C.
2. Combine in a white ½ area well plate: 10 μl of 4× compound (or buffer), 15 μl of substrate and 15 μl of HeLa extract. Mix well
3. Incubate at 37° C. for 60 min.
4. Prepare Activator solution. Dilute Trypsin 1:1600 in Assay Buffer+4μM TSA. 20 μl is needed per assay point.
5. Add 20 μl of prepared activator solution and mix thoroughly.
The hydroxamic-acid based compounds of the present invention were tested in the biochemical assay for their pan-HDAC inhibitory activity.

A further data set has as its system HCT-116 cells. Description: MTS cell viability assay, HCT-116. In kind it is cell-based. The conditions noted are these: Homo sapiens; for IC50: HCT-116, 72 h, read-out: HCT-116, IG50, MTS (uM); for pIC50: HCT-116, 72 hr, read-out: HCT-116, IG50, MTS. On the procedure: (§1) The MTS cell viability assay was used to determine the potency of proliferation inhibitor with. MTS measures mitochondrial dehydrogenase activity and serves as surrogate readout for the number of viable cells.
(§2) For MTS assay, cells were plated in 96-well plates at 2000 cells per well and incubated in the presence of compounds for 72 hr. MTS was added to each well as instructed by manufacture (Promega) and plates were incubated for 4 h at 37° C. The absorbance of each well was measured at 490 nm using a microplate reader.
For orientation: Tetrazolium assays rely on reduction of a dye to a coloured formazan, in cell work by metabolically active cells.

The next data set deals with HH cells. Description: MTS cell viability assay, HH. In kind it is cell-based. The conditions noted are these: Homo sapiens, 72 hr, read-out: HH, IG50, MTS. The procedure: The MTS cell viability assay was used to determine the potency of proliferation inhibitor with. MTS measures mitochondrial dehydrogenase activity and serves as surrogate readout for the number of viable cells. The protocol described below is based upon the “CellTiter 96 Aqueous Non-Radioactive Cell Proliferation Assay” sold by Promega (Technical Bulletin No. 169).
as §2

In another data set the test system is Hut78 cells. As to the kind of experiment: MTS cell viability assay, Hut78. The data set is classed as cell-based. The conditions noted are these: Homo sapiens; Hut78, 72 hr; read-out: Hut78, IG50, MTS. The procedure:
as §1, §2

A further data set deals with HDAC5 (Homo sapiens, UniProt Q9UQL6). Description: HDAC isoform assay, HDAC5.
The target in the next data set is T2, HDAC6 (Homo sapiens, UniProt Q9UBN7).
T2 sequence (Q9UBN7 1-1215): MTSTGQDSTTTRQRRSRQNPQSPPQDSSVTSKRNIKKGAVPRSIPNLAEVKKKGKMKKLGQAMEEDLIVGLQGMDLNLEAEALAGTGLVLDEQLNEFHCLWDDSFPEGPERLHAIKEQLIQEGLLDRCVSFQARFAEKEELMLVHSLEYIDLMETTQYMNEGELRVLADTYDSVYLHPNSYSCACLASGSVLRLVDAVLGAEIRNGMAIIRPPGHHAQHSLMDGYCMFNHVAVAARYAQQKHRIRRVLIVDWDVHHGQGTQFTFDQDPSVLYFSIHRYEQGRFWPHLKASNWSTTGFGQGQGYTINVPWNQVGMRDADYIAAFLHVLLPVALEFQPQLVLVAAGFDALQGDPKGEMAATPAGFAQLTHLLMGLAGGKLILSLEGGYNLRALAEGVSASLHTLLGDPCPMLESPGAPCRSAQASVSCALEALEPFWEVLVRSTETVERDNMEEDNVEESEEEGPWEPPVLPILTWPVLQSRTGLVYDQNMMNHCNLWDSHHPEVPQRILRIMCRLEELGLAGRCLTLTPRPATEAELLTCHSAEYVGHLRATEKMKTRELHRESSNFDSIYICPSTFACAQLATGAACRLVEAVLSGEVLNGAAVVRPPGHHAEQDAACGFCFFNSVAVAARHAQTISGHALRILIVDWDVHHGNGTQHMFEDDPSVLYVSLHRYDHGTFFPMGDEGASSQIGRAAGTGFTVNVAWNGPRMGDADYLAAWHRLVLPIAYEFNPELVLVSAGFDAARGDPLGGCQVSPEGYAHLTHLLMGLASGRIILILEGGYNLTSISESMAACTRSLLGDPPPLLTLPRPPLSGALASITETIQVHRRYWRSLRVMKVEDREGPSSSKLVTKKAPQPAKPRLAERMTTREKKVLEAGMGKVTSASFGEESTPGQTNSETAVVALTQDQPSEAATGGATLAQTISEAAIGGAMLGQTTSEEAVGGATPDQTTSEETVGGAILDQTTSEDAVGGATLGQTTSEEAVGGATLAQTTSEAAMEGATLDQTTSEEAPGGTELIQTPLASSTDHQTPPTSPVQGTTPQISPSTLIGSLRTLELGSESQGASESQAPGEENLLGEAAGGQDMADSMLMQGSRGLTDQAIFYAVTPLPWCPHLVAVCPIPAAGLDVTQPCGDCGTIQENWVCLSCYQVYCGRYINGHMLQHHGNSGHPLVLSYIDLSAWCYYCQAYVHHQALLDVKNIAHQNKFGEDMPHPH
Description: HDAC isoform assay, HDAC6.

A further data set addresses T3, HDAC8 (Homo sapiens, UniProt Q9BY41).
T3 sequence (Q9BY41 1-377): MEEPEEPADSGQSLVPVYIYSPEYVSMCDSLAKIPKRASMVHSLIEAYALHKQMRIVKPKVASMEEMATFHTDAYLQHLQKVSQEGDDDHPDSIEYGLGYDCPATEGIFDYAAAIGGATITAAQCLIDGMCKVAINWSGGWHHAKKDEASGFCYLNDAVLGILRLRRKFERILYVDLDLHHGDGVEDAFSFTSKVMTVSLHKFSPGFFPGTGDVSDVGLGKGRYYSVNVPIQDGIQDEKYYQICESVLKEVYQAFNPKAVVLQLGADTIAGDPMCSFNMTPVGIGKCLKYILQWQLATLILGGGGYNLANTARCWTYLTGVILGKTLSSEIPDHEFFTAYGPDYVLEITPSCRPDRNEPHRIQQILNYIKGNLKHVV
Description: HDAC isoform assay, HDAC8.

SMILES strings stand for the structures. pIC50: −log10 of the molar value. Read-outs that look alike come from different tables or passages of the source.

Chain of HDAC5 (Q9UQL6 whole entry, canonical isoform): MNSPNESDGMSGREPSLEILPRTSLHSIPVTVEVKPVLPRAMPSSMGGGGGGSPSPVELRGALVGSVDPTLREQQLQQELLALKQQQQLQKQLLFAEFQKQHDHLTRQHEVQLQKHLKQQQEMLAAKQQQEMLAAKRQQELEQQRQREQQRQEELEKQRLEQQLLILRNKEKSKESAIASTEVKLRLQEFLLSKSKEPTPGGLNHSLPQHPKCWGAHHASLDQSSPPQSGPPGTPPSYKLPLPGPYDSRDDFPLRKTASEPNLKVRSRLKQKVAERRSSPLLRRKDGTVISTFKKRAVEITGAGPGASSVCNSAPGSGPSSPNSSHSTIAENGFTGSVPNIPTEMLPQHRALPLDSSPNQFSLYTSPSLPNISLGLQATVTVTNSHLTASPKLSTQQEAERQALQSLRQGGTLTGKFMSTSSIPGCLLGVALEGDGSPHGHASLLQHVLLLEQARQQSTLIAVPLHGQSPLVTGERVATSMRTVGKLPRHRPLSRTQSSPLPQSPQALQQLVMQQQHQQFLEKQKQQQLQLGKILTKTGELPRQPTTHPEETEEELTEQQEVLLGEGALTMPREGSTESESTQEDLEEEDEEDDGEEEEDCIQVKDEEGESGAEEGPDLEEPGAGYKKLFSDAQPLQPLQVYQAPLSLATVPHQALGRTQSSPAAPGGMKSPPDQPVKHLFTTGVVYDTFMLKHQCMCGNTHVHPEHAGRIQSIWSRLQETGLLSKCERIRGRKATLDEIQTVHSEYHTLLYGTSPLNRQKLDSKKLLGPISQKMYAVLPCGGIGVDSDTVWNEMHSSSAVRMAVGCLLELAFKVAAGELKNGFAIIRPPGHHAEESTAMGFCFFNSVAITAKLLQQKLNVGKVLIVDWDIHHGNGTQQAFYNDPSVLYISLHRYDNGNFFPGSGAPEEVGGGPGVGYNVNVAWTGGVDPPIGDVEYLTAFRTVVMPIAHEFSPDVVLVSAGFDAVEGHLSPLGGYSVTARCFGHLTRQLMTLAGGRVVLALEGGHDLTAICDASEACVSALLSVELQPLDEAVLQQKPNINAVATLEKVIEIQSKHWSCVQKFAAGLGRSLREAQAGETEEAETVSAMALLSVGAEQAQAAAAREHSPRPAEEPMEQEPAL
T1 sequence (Q92769 whole entry): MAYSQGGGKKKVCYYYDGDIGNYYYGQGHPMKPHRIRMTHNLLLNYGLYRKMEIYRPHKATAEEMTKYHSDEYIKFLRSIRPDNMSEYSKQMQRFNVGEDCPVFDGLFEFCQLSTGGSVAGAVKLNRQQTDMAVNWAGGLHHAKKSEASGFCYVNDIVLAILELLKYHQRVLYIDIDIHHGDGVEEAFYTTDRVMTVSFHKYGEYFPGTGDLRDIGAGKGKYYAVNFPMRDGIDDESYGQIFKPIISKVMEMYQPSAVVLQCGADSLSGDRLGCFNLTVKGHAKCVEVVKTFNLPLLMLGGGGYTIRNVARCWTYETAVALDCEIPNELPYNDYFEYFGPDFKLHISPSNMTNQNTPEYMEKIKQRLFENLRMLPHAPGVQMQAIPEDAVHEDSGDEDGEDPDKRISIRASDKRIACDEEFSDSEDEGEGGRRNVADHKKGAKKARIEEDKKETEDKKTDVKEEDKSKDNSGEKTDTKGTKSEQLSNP

For `O=C(CCCCCNC(=O)c1cn2c3c(cccc13)CCC2)NO` [compound 2, N-[6-(hydroxyamino)-6-oxohexyl]-5,6-dihydro-4H-pyrrolo[3,2,1-ij]quinoline-1-carboxamide], the pIC50 on HDAC2 was 5.71; in data set [1], 7.24; in the data set with HH cells, 5.76; in the data set on Hut78 cells, 5.53; on HDAC5 it was 7.04; at HDAC6, 7.17. At HDAC8, the pIC50 was 5.96. In addition, the IC50 in the data set with HCT-116 cells turned out to be 0.63 µM.

As to `O=C(CCCCCCNC(=O)c1cn2c3c(cccc13)CCC2)NO` [compound 3, N-[7-(hydroxyamino)-7-oxoheptyl]-5,6-dihydro-4H-pyrrolo[3,2,1-ij]quinoline-1-carboxamide], the melting point (commonly the temperature of the solid-liquid transition) lay within 205 to 206 °C. The pIC50 at HDAC2 was 5.61. Moreover, the pIC50 in [1] was 7.16. Further, in the data set on HCT-116 cells, the IC50 was determined as 0.215 µM. Moreover, in the data set with HH cells, the pIC50 is 6.95. Besides, in the data set with Hut78 cells, the pIC50 was 6.62. The compound also gave a pIC50 against HDAC5 of 7.02. Besides, at HDAC6, the pIC50 is 6.80. This compound showed a pIC50 at HDAC8 of 6.39.

The compound `O=C(CCCCCNC(=O)C(=O)c1cn2c3c(cccc13)CCC2)NO` [compound 8, 6-{[5,6-dihydro-4H-pyrrolo[3,2,1-ij]quinolin-1-yl(oxo)acetyl]amino}-N-hydroxyhexanamide] registered a melting point of 150 to 155 °C. On HDAC2, the pIC50 was 5.74. In data set [1], the pIC50 is 6.94. In the data set on HCT-116 cells, the IC50 turned out to be 0.737 µM. For the same compound, the pIC50 with HH cells is 5.58. The pIC50 at HDAC5 was 6.79. Besides, the pIC50 at HDAC6 is 7.11. The same compound gave a pIC50 against HDAC8 of 5.03.

`O=C(CCCNC(=O)C(=O)c1cn2c3c(cccc13)CCC2)NO` [compound 9, 4-{[5,6-dihydro-4H-pyrrolo[3,2,1-ij]quinolin-1-yl(oxo)acetyl]amino}-N-hydroxybutanamide] had a melting point of 95 to 97 °C. Also, the pIC50 at HDAC2 is 5.52. Besides, the pIC50 in [1] is 6.22. Moreover, the IC50 with HCT-116 cells is 5.02 µM. Further, the pIC50 in the data set on HH cells is 6.44. Further, the pIC50 in the data set with Hut78 cells was 6.04. This compound also gave a pIC50 on HDAC6 of 6.16. For the same compound, the pIC50 at HDAC8 is 5.00.

In the case of `O=C(CCCCCCNC(=O)Nc1cn2c3c(cccc13)CCC2)NO` [compound 11, 7-[(5,6-dihydro-4H-pyrrolo[3,2,1-ij]quinolin-1-ylcarbamoyl)amino]-N-hydroxyheptanamide], the melting point is 185 to 187 °C. For the same compound, the pIC50 on HDAC2 is 5.87. For the same compound, in data set [1], the pIC50 is 7.55. Further, the pIC50 in the data set on HCT-116 cells was 6.31. Moreover, the pIC50 in the data set with HH cells was 7.03. The pIC50 in the data set on Hut78 cells is 6.74. Further, the pIC50 on HDAC5 is 6.45. Moreover, at HDAC6, the pIC50 was 7.18. At HDAC8, this compound had a pIC50 of 6.31.

The compound `O=C(CCCCCCNC(=O)C(=O)c1cn2c3c(cccc13)CCC2)NO` [compound 12, 7-{[5,6-dihydro-4H-pyrrolo[3,2,1-ij]quinolin-1-yl(oxo)acetyl]amino}-N-hydroxyheptanamide] yielded a melting point of 158 to 159 °C. Besides, on HDAC2, the pIC50 is 5.63. The same compound showed a pIC50 in data set [1] of 6.90. Moreover, in the data set on HCT-116 cells, the pIC50 was 6.15. The pIC50 with HH cells is 7.35. Besides, the pIC50 in the data set with Hut78 cells was 6.76. This compound showed a pIC50 against HDAC5 of 6.59. The same compound gave a pIC50 against HDAC6 of 6.87. The pIC50 at HDAC8 is 5.19.

Turning to `O=C(CCCCCNC(=O)Nc1cn2c3c(cccc13)CCC2)NO` [compound 13, 6-[(5,6-dihydro-4H-pyrrolo[3,2,1-ij]quinolin-1-ylcarbamoyl)amino]-N-hydroxyhexanamide], the melting point lay within 161 to 163 °C. At HDAC2, the pIC50 was 5.75. Besides, the pIC50 in [1] was 7.49. Besides, in the data set with HCT-116 cells, the pIC50 is 6.20. For the same compound, the pIC50 in the data set with HH cells was 5.99. The pIC50 in the data set with Hut78 cells was 5.90. Further, at HDAC5, the pIC50 is 6.70. Moreover, the pIC50 against HDAC6 was 7.20. Further, the pIC50 on HDAC8 was 6.04.
